Experimental data as given in ChEMBL document CHEMBL1201862, “PubChem BioAssay data set” (2004).
Calls of active or inactive are those of the source.

Legend:
[1] = TB: CFU replicating Measured in Microorganism System Using Imaging - 7108-05_Inhibitor_Dose_DryPowder_Activity_Set2.; assay type: functional
[2] = biological target: Bifunctional protein GlmU (Mycobacterium tuberculosis, UniProt P9WMN3); test: Inhibitors of Mycobacterial Glucosamine-1-phosphate acetyl transferase (GlmU). Secondary screen.; design: species or system Mycobacterium tuberculosis H37Rv
Cysteine protease ATG4B = biological target: T1, Cysteine protease ATG4B (Homo sapiens, UniProt Q9Y4P1); assay type: functional;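 further: Fluorescence-based dose-response confirmation assay measuring inhibition of ATG4B activity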
T1 sequence (Q9Y4P1 whole entry): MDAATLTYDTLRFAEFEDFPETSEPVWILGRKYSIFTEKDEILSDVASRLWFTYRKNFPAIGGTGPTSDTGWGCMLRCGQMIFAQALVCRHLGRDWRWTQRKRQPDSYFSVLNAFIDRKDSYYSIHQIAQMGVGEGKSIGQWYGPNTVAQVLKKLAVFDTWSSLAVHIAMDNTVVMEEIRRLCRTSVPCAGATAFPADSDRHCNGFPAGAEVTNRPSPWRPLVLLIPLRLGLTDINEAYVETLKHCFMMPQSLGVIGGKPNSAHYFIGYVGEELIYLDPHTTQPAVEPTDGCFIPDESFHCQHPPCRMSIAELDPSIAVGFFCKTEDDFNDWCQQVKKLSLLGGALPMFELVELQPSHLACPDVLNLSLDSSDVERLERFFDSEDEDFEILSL

Phospholipase A2 = Phospholipase A2 (Homo sapiens, UniProt P04054); assay type: functional;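 further: confirmatory dose-response counterscreen on phospholipase A2, testing hits that came from an ultra-high-throughput screen for ATG4B inhibitors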
Protein Tat = Protein Tat (Human immunodeficiency virus type 1 group M subtype B (isolate HXB2)(HIV-1), UniProt P04608); assay type: functional;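 further: tat binding to TAR RNA read out by fluorescence polarization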
Phospholipase D2 [3] = biological target: T2, Phospholipase D2 (Homo sapiens, UniProt O14939); test: PLD2 Cellular Concentration Response Study.; assay type: functional
Phospholipase D2 [4] = biological target: T2, Phospholipase D2; test: Discovery of PLD2 inhibitors using the Purified Enzyme Concentration Response Assay.; assay type: functional
Phospholipase D1 = Phospholipase D1 (Homo sapiens, UniProt Q13393); test: PLD1 Cellular Concentration Response Study.; assay type: functional
[5] = TRPM1 promoter luciferase reporter signal decrease, dose response, MITF inhibitor project, cell-based, SK-MEL-5, dry powder, set 9 (AID 651588); assay type: functional
[6] = MITF Orthogonal Assay: MALME3 CTG Assay Measured in Cell-Based System Using Plate Reader - 2084-04_Inhibitor_Dose_DryPowder_Activity_Set6.; assay type: functional; conditions: MALME-3
[7] = SK-MEL-5 parental cell viability reduction, dose response, orthogonal assay for MITF inhibitor project, CellTiter-Glo luminescence, dry powder, set 8 (AID 651586); assay type: functional, cell-based
[8] = MALME3 melanoma cell viability reduction, dose response, orthogonal assay for MITF inhibitor project, CellTiter-Glo luminescence, dry powder, set 5 (AID 651584); assay type: functional, cell-based; conditions: MALME-3
[9] = MITF Orthogonal Assay: SK-MEL-5 CTG Assay Measured in Cell-Based System Using Plate Reader - 2084-02_Inhibitor_Dose_DryPowder_Activity_Set7.; assay type: functional
[10] = MITF: Counter assay: A375 proliferation Measured in Cell-Based System Using Plate Reader - 2084-03_Inhibitor_Dose_DryPowder_Activity_Set8.; assay type: functional; conditions: A-375
[11] = A375 melanoma cell viability loss, dose response, counter-screen for MITF modulator project, CellTiter-Glo luminescence, dry powder, set 9 (AID 651591); assay type: functional, cell-based; conditions: A-375
[12] = TRPM1 promoter luciferase reporter signal decrease, dose response, MITF inhibitor project, cell-based, SK-MEL-5, dry powder, set 8 (AID 624430); assay type: functional
[13] = biological target: T3, Carboxy-terminal domain RNA polymerase II polypeptide A small phosphatase 1 (Homo sapiens, UniProt Q9GZU7); test: inhibitors of CTDSP1, concentration-response testing, biochemical assay, absorbance-based, actives from ultra-high-throughput screening (AID 540297); assay type: functional
T3 sequence (Q9GZU7 whole entry): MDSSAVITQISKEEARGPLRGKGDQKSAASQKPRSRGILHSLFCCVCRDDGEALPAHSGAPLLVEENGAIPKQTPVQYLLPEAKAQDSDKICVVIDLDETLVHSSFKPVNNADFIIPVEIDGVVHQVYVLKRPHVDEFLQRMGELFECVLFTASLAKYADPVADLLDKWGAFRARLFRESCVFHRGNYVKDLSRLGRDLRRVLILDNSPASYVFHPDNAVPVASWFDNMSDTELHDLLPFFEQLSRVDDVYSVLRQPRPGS

[14] = biological target: SWI/SNF-related matrix-associated actin-dependent regulator of chromatin subfamily A member 2 (Homo sapiens, UniProt P51531); test: Luminescence-based cell-based high throughput dose response assay to identify activators of the function of SWI/SNF related, matrix associated, actin dependent regulator of chromatin, subfamily a, member 2 (SMARCA2, BRM).; assay type: functional
[15] = Counterscreen for activators of the function of SWI/SNF related, matrix associated, actin dependent regulator of chromatin, subfamily a, member 2 (SMARCA2, BRM): Luminescence-based cell-based high throughput dose response assay to identify non-selective compounds using the VP16 reporter assay.; assay type: functional
Caspase-6 = biological target: T4, Caspase-6 (Homo sapiens, UniProt P55212); test: human caspase-6 inhibitors, dose response, biochemical, VEID-R110 fluorescence, cherry-pick (AID 720632)
T4 sequence (P55212 whole entry): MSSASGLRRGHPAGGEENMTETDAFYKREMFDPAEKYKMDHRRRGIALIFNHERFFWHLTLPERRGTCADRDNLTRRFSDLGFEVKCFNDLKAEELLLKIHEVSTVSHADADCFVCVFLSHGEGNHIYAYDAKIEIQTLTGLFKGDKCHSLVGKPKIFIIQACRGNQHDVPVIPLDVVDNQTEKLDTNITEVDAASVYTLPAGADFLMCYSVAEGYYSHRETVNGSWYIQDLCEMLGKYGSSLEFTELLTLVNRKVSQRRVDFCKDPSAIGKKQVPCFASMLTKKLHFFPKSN

ELAV-like protein 1 = ELAV-like protein 1 (Homo sapiens, UniProt Q15717); test: Identify HuR specific inhibitors.; assay type: functional
[16] = P. falciparum Dd2 blood-stage growth inhibition, dose response, SYBR Green fluorescence, erythrocytes, dry powder, set 2 (AID 1159574); assay type: functional, cell-based

Phospholipase D1, sequence (Q13393 whole entry): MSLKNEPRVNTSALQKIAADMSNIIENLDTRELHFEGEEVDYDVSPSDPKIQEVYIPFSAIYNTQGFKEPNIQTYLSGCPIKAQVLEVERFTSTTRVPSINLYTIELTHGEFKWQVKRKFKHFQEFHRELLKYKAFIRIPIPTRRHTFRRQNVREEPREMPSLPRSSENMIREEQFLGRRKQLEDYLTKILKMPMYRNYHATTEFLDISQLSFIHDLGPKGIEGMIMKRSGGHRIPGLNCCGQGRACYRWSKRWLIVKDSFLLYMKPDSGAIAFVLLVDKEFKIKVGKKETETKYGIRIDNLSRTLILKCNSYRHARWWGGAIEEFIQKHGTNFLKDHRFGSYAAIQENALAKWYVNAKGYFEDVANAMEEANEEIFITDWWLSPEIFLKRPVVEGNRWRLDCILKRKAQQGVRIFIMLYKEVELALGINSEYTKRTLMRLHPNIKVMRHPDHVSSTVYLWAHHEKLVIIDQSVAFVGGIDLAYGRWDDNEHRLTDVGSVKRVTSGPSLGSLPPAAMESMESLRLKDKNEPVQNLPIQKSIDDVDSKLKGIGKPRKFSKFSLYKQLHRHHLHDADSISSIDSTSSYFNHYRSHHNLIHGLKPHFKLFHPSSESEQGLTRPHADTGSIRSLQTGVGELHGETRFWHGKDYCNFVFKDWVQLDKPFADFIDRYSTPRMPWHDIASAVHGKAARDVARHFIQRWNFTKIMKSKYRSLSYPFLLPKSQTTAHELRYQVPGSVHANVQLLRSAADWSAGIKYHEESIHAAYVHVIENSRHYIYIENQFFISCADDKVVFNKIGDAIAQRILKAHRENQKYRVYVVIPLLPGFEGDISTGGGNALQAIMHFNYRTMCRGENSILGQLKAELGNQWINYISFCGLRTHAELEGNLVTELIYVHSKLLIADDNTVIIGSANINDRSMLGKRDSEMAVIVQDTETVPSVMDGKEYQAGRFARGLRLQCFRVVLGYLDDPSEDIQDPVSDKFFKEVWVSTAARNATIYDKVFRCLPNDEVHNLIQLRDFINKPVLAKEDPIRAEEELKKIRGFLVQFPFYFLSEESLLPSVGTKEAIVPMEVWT
T2 sequence (O14939 whole entry): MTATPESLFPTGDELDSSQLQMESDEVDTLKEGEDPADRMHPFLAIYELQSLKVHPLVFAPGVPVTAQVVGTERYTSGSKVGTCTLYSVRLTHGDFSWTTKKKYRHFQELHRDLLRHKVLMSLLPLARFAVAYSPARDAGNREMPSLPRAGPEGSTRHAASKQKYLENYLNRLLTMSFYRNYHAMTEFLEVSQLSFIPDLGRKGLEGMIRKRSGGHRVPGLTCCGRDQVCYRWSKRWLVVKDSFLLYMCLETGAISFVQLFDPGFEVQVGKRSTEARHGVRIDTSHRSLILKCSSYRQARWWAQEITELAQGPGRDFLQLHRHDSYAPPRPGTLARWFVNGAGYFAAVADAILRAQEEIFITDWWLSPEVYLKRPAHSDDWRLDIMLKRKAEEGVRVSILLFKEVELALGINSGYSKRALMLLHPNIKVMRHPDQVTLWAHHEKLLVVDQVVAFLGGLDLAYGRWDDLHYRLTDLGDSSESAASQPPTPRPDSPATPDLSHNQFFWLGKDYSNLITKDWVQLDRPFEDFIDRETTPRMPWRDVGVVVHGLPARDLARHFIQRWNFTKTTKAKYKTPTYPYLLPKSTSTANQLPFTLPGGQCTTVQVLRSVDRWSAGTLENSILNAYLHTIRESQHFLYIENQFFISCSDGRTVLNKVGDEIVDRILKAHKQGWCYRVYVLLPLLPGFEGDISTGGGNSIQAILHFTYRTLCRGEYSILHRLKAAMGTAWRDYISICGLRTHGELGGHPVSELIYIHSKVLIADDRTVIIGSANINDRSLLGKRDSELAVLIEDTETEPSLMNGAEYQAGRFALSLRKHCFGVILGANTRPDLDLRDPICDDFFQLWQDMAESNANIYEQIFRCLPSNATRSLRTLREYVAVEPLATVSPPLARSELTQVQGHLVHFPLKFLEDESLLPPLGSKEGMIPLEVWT
Phospholipase A2, sequence (P04054 whole entry): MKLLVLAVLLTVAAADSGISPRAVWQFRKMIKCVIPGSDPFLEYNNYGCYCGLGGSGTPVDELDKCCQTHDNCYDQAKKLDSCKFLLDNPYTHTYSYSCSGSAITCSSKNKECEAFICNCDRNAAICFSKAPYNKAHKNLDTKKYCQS
Bifunctional protein GlmU, sequence (P9WMN3 whole entry): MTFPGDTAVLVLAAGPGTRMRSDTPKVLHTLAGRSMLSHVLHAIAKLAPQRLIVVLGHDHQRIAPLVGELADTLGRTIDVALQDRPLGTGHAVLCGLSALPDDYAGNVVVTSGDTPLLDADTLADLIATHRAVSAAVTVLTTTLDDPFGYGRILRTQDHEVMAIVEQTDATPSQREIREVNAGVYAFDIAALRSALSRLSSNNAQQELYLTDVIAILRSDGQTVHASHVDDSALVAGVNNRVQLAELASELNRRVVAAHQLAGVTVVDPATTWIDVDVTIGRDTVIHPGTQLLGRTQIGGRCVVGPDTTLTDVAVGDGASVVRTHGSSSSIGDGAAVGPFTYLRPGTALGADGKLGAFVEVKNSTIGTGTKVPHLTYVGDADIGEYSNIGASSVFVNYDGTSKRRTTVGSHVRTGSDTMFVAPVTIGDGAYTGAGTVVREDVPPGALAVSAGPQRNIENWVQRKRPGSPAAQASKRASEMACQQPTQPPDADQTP
Protein Tat, sequence (P04608 whole entry): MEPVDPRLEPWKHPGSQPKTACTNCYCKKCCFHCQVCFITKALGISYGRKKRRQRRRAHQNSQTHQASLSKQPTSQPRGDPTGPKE
ELAV-like protein 1, sequence (Q15717 whole entry): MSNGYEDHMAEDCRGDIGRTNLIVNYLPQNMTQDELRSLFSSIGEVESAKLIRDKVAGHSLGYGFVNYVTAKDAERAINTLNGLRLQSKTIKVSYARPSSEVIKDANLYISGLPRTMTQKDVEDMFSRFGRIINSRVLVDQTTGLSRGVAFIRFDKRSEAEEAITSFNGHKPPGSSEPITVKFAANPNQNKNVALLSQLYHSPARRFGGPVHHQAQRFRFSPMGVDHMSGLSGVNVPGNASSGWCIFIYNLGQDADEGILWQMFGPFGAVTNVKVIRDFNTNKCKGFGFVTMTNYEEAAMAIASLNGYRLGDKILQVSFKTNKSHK
SWI/SNF-related matrix-associated actin-dependent regulator of chromatin subfamily A member 2, sequence (P51531 whole entry): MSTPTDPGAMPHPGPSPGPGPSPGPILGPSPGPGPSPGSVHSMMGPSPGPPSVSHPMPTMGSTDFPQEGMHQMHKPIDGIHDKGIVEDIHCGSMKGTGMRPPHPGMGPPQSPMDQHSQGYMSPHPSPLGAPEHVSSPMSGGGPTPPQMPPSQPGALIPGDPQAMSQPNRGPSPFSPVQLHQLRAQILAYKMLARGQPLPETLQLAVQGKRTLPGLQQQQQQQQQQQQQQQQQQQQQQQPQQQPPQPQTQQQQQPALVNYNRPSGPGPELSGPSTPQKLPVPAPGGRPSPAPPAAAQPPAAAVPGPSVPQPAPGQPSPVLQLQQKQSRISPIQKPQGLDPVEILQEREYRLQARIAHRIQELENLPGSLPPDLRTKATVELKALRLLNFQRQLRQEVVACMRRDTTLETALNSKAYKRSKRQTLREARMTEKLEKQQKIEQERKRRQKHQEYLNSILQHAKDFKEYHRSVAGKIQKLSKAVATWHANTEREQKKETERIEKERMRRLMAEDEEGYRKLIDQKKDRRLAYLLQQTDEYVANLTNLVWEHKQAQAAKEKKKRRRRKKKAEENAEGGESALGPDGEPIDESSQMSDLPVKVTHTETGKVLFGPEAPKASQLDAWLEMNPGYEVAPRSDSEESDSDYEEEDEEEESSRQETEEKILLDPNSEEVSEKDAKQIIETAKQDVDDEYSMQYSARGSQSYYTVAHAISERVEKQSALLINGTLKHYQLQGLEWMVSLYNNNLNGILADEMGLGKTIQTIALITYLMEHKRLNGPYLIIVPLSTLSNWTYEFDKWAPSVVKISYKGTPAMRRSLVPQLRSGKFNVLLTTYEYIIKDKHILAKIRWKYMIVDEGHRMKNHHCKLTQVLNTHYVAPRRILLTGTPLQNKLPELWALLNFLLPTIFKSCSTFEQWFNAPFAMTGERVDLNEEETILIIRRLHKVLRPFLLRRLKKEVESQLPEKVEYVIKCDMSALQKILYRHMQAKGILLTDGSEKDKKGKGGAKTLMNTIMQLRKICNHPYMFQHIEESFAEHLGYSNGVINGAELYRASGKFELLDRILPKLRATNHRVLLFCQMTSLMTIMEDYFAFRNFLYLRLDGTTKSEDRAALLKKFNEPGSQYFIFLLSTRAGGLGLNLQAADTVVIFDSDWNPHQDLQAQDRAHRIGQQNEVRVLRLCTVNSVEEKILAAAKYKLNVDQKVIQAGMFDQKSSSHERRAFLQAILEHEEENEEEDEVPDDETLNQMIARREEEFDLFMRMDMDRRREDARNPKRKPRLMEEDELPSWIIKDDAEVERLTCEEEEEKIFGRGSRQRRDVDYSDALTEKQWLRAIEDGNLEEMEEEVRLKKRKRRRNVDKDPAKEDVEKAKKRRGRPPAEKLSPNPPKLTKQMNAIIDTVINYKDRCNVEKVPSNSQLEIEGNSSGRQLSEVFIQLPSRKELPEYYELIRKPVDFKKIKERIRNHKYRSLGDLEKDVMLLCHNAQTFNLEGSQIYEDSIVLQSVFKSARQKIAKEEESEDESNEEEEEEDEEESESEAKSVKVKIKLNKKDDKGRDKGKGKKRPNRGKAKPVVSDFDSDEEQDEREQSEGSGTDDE

Cn1c(NC(=O)c2ccccc2)nc2ncccc21
AbsAC90 [1]: 724.55 µM

C=CC#CC[N+]1(CC#Cc2ccccc2)CCOCC1
IC50 [2]: 124 µM (active)
IC50 (Cysteine protease ATG4B): 5.56 µM (active)
IC50 (Phospholipase A2): 11.8 µM (active)

CCCCn1c(N)c(N(CCOC)C(=O)c2cc(-c3ccco3)nc3ccccc23)c(=O)[nH]c1=O
IC50 (Protein Tat): > 100 µM (active)

O=C(NCCN1CCC2(CC1)C(=O)NCN2Cc1cccnc1)c1ccc2ccccc2c1
IC50 (Phospholipase D2 [3]): 0.46 µM (active)
IC50 (Phospholipase D2 [4]): 8.7 µM (active)
IC50 (Phospholipase D1): 20 µM (active)

O=C1C(Nc2ccc(Cl)cc2)=C(N2CCCC2)C(=O)c2ccccc21
AC50 [5]: 31.6 µM (active)
AC50 [6]: 39.2 µM (active)
AC50 [7]: > 70 µM (inactive)
AC50 [8]: 39.2 µM (active)
AC50 [9]: 1.77 µM (active)
AC50 [10]: 41.5 µM (active)
AC50 [11]: 50.9 µM (active)
AC50 [12]: 3.48 µM (active)

CC#CC#Cc1cccc(=O)o1
IC50 [13]: 16.5 µM (active)
EC50 [14]: > 91 µM (inactive)
EC50 [15]: > 91 µM (inactive)
AC50 (Caspase-6): 9.68 µM (active)
IC50 (ELAV-like protein 1): 44.4 µM (active)

COc1ccc(S(=O)(=O)N(C)C[C@H]2OCc3ccccc3-c3c(n(C)c4ccccc34)C(=O)N([C@@H](C)CO)C[C@@H]2C)cc1
AC50 [16]: 1.47 µM (active)
